US9073941B2, “Compounds and methods for treating tuberculosis infection” (Academia Sinica, priority 2010, dated 2015)
Read-outs that look alike come from different tables or passages of the source.

What was measured:
[1] = molecular target: lipoamide dehydrogenase (Lpd) (Mycobacterium tuberculosis (strain ATCC 25618 / H37Rv), UniProt P9WHH9); experiment: Lipoamide Dehydrogenase (Lpd) Inhibition Assay; type: biochemical
Mtb PDH (Lpd+DlaT+AceE) = Mtb PDH (Lpd+DlaT+AceE) (Mycobacterium tuberculosis (strain ATCC 25618 / H37Rv), UniProt P9WHH9); experiment: PDH Inhibition Activity; type: biochemical; details: concentration required for 50% inhibition of PDH activity; fluorescence ex 360 nm / em 460 nm; read-out: PDH IC50
[2] = concentration required for 50% inhibition of LPD activity, DTNB detection, OD405 nm

Structure (SMILES) | IC50 [1, 2] [nM] | also measured
CCOc1ccc2nc(NC(=O)C3CCN(S(=O)(=O)c4cn(C(C)C)cn4)CC3)sc2c1 [Compound 550] | 2130 ± 240 | 
CC(C)n1cnc(S(=O)(=O)N2CCC(C(=O)Nc3cccc(Br)c3)CC2)c1 [Compound 519] | 2760 ± 590 | 
Oc1ccc(NCc2cc3cc4c(cc3nc2O)OCO4)cc1 [Compound 804] | 4670 ± 570 | 
CCn1cnc(S(=O)(=O)N2CCC(C(=O)Nc3ccc(C)c(Cl)c3)CC2)c1 [Compound 544] | 4550 ± 1270 | 
CCOc1ccc2nc(NC(=O)C3CCN(S(=O)(=O)c4cn(CC)cn4)CC3)sc2c1 [Compound 562] | 3500 ± 470 | 
CC(C)n1cnc(S(=O)(=O)N2CCC(C(=O)NCCCc3ccccc3)CC2)c1 [Compound 547] | 2670 ± 600 | 
Cc1ccc(NC(=O)C2CCN(S(=O)(=O)c3cn(C(C)C)cn3)CC2)cc1Cl [Compound 533] | 2640 ± 190 | 
Cc1ccc(NC(=O)C2CCN(S(=O)(=O)c3cn(C(C)C)cn3)CC2)cc1F [Compound 532] |  | IC50 [1]: 2850 ± 510 nM
CC(C)n1cnc(S(=O)(=O)N2CCC(C(=O)NCc3ccc(F)cc3)CC2)c1 [Compound 557] |  | IC50 [1]: 3550 ± 1170 nM
CCc1ccc(NC(=O)C2CCN(S(=O)(=O)c3cn(C(C)C)cn3)CC2)cc1 [Compound 512] | 2900 ± 710 | 
COCCN(C(=O)c1cccs1)c1nc2c(s1)CCc1c-2cnn1C [Compound 1101] | 1620 ± 240 | 
COc1ccc(NC(=O)C2CCN(S(=O)(=O)c3cn(C(C)C)cn3)CC2)cc1Cl [Compound 534] | 1690 ± 380 | 
CC(C)c1ccc(NC(=O)C2CCN(S(=O)(=O)c3cn(C(C)C)cn3)CC2)cc1 [Compound 509] |  | IC50 [1]: 2870 ± 520 nM
CN(C(=O)c1ccc(Cn2cccn2)o1)c1nc2c(s1)CCc1c-2cnn1C [Compound 1105] | 3640 ± 510 | 
COC1CCCC(C(=O)N(CC2CCCO2)c2nc3c(s2)CCc2c-3cnn2C)C1 (stereo not shown) [Compound 1107] | 3220 ± 500 | 
CC(C)n1cnc(S(=O)(=O)N2CCC(C(=O)Nc3cccc(Cl)c3)CC2)c1 [Compound 518] | 3830 ± 780 | 
CCOc1ccc2cc(CNc3ccc(O)cc3)c(O)nc2c1 [Compound 802] | 3340 ± 260 | 
CC(C)n1cnc(S(=O)(=O)N2CCC(C(=O)NC3CC3)CC2)c1 [Compound 559] | 2990 ± 1390 | 
CCCN(C(=O)c1ccc(COC)o1)c1nc2c(s1)CCc1c-2cnn1C [Compound 1102] | 3160 ± 430 | 
COc1ccc(CNC(=O)C2CCN(S(=O)(=O)c3cn(C(C)C)cn3)CC2)cc1 [Compound 558] | 3330 ± 800 | 
COc1ccc(NC(=O)CN(C)S(=O)(=O)c2cc(Br)cnc2N)cc1Cl [Compound 503] |  | IC50 [1]: 700 ± 80 nM

Structure (SMILES) | IC50 [1, 2] [nM] | also measured
COc1ccc(NC(=O)C2CCN(S(=O)(=O)c3cn(C(C)C)cn3)CC2)c(OC)c1 [Compound 537] | 3400 ± 1600 | 
COc1ccc2nc(NC(=O)C3CCN(S(=O)(=O)c4cn(C(C)C)cn4)CC3)sc2c1 [Compound 551] | 2280 ± 110 | 
CN(C(=O)Cc1cccs1)c1nc2c(s1)CCc1c-2cnn1C [Compound 1103] | 2890 ± 460 | 
CC(C)n1cnc(S(=O)(=O)N2CCC(C(=O)NCc3ccccc3)CC2)c1 [Compound 536] |  | IC50 [1]: 2690 ± 800 nM
CN(C(=O)c1ccc2c(c1)OCCO2)c1nc2c(s1)CCc1c-2cnn1C [Compound 1106] |  | IC50 [1]: 2670 ± 230 nM
Nc1c(Br)cc(Br)c2nsnc12 [Compound 202] |  | IC50 (Mtb PDH (Lpd+DlaT+AceE)): 1690 nM
CC(C)n1cnc(S(=O)(=O)N2CCC(C(=O)Nc3ccc(S(N)(=O)=O)cc3)CC2)c1 [Compound 513] | 4120 ± 1810 | 
CCc1cccc(NC(=O)C2CCN(S(=O)(=O)c3cn(C(C)C)cn3)CC2)c1 [Compound 511] | 2550 ± 790 | 
COc1ccc(NC(=O)CN(C)S(=O)(=O)c2cc(Br)cnc2N)cc1OC [Compound 502] | 840 ± 130 | 
COc1ccc(NC(=O)C2CCN(S(=O)(=O)c3cn(C(C)C)cn3)CC2)cc1OC [Compound 528] | 1830 ± 140 | 
COCCN(C(=O)c1nsc(Cl)c1Cl)c1nc2c(s1)CCc1c-2cnn1C [Compound 1104] | 2240 ± 260 | 
CCn1cnc(S(=O)(=O)N2CCC(C(=O)Nc3ccc(OC)c(Cl)c3)CC2)c1 [Compound 548] | 2350 ± 520 | 
Cc1ccc(C)c(NC(=O)C2CCN(S(=O)(=O)c3cn(C(C)C)cn3)CC2)c1 [Compound 529] | 3920 ± 2470 | 
CCOc1ccc2nc(O)c(CNc3ccc4[nH]ncc4c3)cc2c1 [Compound 807] | 4540 ± 770 | 
CC(C)n1cnc(S(=O)(=O)N2CCC(C(=O)Nc3ccc(Cl)cc3)CC2)c1 [Compound 522] | 2940 ± 720 | 
CCn1cnc(S(=O)(=O)N2CCC(C(=O)Nc3ccc4c(c3)OCCO4)CC2)c1 [Compound 545] | 2690 ± 560 | 
Cc1cc(C)cc(NC(=O)C2CCN(S(=O)(=O)c3cn(C(C)C)cn3)CC2)c1 [Compound 514] | 2670 ± 570 | 
CC(C)n1cnc(S(=O)(=O)N2CCC(C(=O)NCc3cccs3)CC2)c1 [Compound 549] |  | IC50 [1]: 3420 ± 1330 nM
CCOC(=O)c1ccc(NC(=O)C2CCN(S(=O)(=O)c3cn(C(C)C)cn3)CC2)cc1 [Compound 525] | 2440 ± 580 | 
CCn1cnc(S(=O)(=O)N2CCC(C(=O)Nc3ccc(OC)cc3)CC2)c1 [Compound 541] | 3310 ± 1220 | 
CCOc1ccc(NC(=O)C2CCN(S(=O)(=O)c3cn(C(C)C)cn3)CC2)cc1 [Compound 520] |  | IC50 [1]: 2170 ± 370 nM

Structure (SMILES) | IC50 [1, 2] [nM] | also measured
COc1ccc(NC(=O)C2CCN(S(=O)(=O)c3cn(C(C)C)cn3)CC2)cc1 [Compound 521] | 2310 ± 360 | 
CC(C)n1cnc(S(=O)(=O)N2CCC(C(=O)Nc3ccc(Br)cc3F)CC2)c1 [Compound 538] | 2540 ± 570 | 
CC(C)n1cnc(S(=O)(=O)N2CCC(C(=O)Nc3ccc4c(c3)OCO4)CC2)c1 [Compound 530] |  | IC50 [1]: 2070 ± 710 nM
CC(C)n1cnc(S(=O)(=O)N2CCC(C(=O)Nc3ccccc3)CC2)c1 [Compound 507] | 2770 ± 690 | 
Cc1cccc(NC(=O)C2CCN(S(=O)(=O)c3cn(C(C)C)cn3)CC2)c1 [Compound 508] | 2610 ± 820 | 
CCn1cnc(S(=O)(=O)N2CCC(C(=O)Nc3cccc(-c4ccno4)c3)CC2)c1 [Compound 553] | 2680 ± 990 | 
CC(C)n1cnc(S(=O)(=O)N2CCC(C(=O)Nc3ccc4c(c3)OCCO4)CC2)c1 [Compound 523] | 1600 ± 480 | 
CC(C)n1cnc(S(=O)(=O)N2CCC(C(=O)Nc3cccc(-c4ccno4)c3)CC2)c1 [Compound 535] | 2120 ± 210 | 
COc1ccc(CCNC(=O)C2CCN(S(=O)(=O)c3cn(C(C)C)cn3)CC2)cc1OC [Compound 564] | 2220 ± 520 | 
Cc1ccc2nc(NC(=O)C3CCN(S(=O)(=O)c4cn(C(C)C)cn4)CC3)sc2c1 [Compound 542] | 5060 ± 1090 | 
CC(C)n1cnc(S(=O)(=O)N2CCC(C(=O)Nc3cccc(F)c3)CC2)c1 [Compound 517] | 3610 ± 980 | 
CCN(C(=O)C1CCCO1)c1nc2c(s1)CCc1c-2cnn1C (stereo not shown) [Compound 1108] | 3760 ± 190 | 
CC(C)n1cnc(S(=O)(=O)N2CCC(C(=O)NCc3ccc(Br)cc3)CC2)c1 [Compound 555] | 3200 ± 1050 | 
Cc1ccc(NC(=O)C2CCN(S(=O)(=O)c3cn(C(C)C)cn3)CC2)cc1C [Compound 510] | 2450 ± 210 | 
Cc1ccc(CNC(=O)CN(C)S(=O)(=O)c2cc(Br)cnc2N)cc1 [Compound 506] | 3310 ± 490 | 
CN(CC(=O)Nc1ccc(F)cc1)S(=O)(=O)c1cc(Br)cnc1N [Compound 504] |  | IC50 [1]: 4300 ± 1210 nM
CC(C)Oc1ccc(CNC(=O)C2CCN(S(=O)(=O)c3cn(C(C)C)cn3)CC2)cc1 [Compound 560] | 3860 ± 900 | 
CCSc1nnc(NC(=O)C2CCN(S(=O)(=O)c3cn(CC)cn3)CC2)s1 [Compound 565] | 3060 ± 470 | 
Oc1ccc(NCc2cc3ccccc3nc2O)cc1 [Compound 803] | 1620 ± 180 | 
Cn1c(=O)nc2[nH]nc(/C=C/c3ccccc3)nc-2c1=O [Compound 622] | 2160 ± 260 | 
CCc1ccc(NC(=O)C2CCN(S(=O)(=O)c3cn(CC)cn3)CC2)cc1 [Compound 539] |  | IC50 [1]: 4300 ± 1660 nM

Structure (SMILES) | IC50 [1, 2] [nM] | also measured
COc1cc(Cl)c(NC(=O)C2CCN(S(=O)(=O)c3cn(C(C)C)cn3)CC2)c(OC)c1 [Compound 552] |  | IC50 [1]: 2870 ± 670 nM
CCOc1ccccc1CNC(=O)C1CCN(S(=O)(=O)c2cn(C(C)C)cn2)CC1 [Compound 554] | 3420 ± 880 | 
CC(C)n1cnc(S(=O)(=O)N2CCC(C(=O)Nc3ccc(F)c(Cl)c3)CC2)c1 [Compound 527] | 3130 ± 790 | 
Cc1cc(NC(=O)C2CCN(S(=O)(=O)c3cn(C(C)C)cn3)CC2)ccc1Br [Compound 531] | 4110 ± 1590 | 
CCn1cnc(S(=O)(=O)N2CCC(C(=O)Nc3nc4ccc(OC)cc4s3)CC2)c1 [Compound 563] | 3020 ± 870 | 
COc1cc(OC)c(NC(=O)C2CCN(S(=O)(=O)c3cn(C(C)C)cn3)CC2)cc1Cl [Compound 546] |  | IC50 [1]: 2850 ± 780 nM
CC(C)n1cnc(S(=O)(=O)N2CCC(C(=O)Nc3ccccc3F)CC2)c1 [Compound 524] | 2670 ± 650 | 
CCn1cnc(S(=O)(=O)N2CCC(C(=O)NCCc3nc4cc(C)ccc4[nH]3)CC2)c1 [Compound 566] | 3910 ± 790 | 
CCc1ccc2nc(O)c(CNc3ccc(N(C)C)cc3)cc2c1 [Compound 806] | 4730 ± 910 | 
CC(C)n1cnc(S(=O)(=O)N2CCC(C(=O)NCc3ccc(Cl)cc3)CC2)c1 [Compound 556] | 3750 ± 1010 | 
Cc1cccc(CNC(=O)C2CCN(S(=O)(=O)c3cn(C(C)C)cn3)CC2)c1 [Compound 540] |  | IC50 [1]: 4180 ± 1090 nM
COc1cccc(NC(=O)C2CCN(S(=O)(=O)c3cn(C(C)C)cn3)CC2)c1 [Compound 516] | 2460 ± 760 | 
CC(C)c1ccc(NC(=O)CN(C)S(=O)(=O)c2cc(Br)cnc2N)cc1 [Compound 505] | 840 ± 110 | 
CCOc1ccc(CNC(=O)C2CCN(S(=O)(=O)c3cn(C(C)C)cn3)CC2)cc1OC [Compound 561] | 3020 ± 1780 | 
CCOc1ccc(NC(=O)C2CCN(S(=O)(=O)c3cn(CC)cn3)CC2)cc1 [Compound 543] |  | IC50 [1]: 3970 ± 1130 nM
COc1ccc2cc(CNc3ccc(O)cc3)c(O)nc2c1 [Compound 801] | 2250 ± 160 | 
Cc1ccc2cc(CNc3ccc(O)cc3)c(O)nc2c1 [Compound 805] | 1640 ± 140 | 
CSc1cccc(NC(=O)C2CCN(S(=O)(=O)c3cn(C(C)C)cn3)CC2)c1 [Compound 515] | 4810 ± 840 | 
Cc1ccc(NC(=O)C2CCN(S(=O)(=O)c3cn(C(C)C)cn3)CC2)cc1N(C)C [Compound 526] | 2790 ± 720 | 
